According to ChEMBL document CHEMBL5726054, “Substituted bicyclic compounds” (2019):

Biological target: Sphingosine 1-phosphate receptor 1 (Homo sapiens) (UniProt P21453)
Assay: hS1P1 ERK Phosphorylation (S1P1 pERK): hS1P1/CHO cells were plated into BD Amine 384-well plates the day before the assay. On the day of the assay, growth medium was removed and replaced with serum-free medium (Ham's F-12 Invitrogen) and incubated for 2 hours. Test compounds pre-diluted in HBSS (Gibco)/20 mM HEPES (Gibco) were transferred to the cell plates and incubated for 7 minutes at 37° C. …

Chain of Sphingosine 1-phosphate receptor 1 (Homo sapiens) (P21453 whole entry, looked up): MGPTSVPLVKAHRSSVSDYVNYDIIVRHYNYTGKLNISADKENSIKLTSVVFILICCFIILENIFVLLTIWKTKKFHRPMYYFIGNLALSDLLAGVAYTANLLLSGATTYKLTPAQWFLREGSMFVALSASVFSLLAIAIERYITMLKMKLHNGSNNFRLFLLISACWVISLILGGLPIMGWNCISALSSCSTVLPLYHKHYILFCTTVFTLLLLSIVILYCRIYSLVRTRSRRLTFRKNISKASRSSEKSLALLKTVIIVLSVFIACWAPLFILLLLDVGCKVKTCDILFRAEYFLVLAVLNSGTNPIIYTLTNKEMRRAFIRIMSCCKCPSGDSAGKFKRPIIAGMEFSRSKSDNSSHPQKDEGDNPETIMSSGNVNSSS

EC50, in the range around 55 nM:
CCCCCCC1CCc2cc(C3CCC(N)(COP(=O)(O)O)C3)ccc2O1 (stereo not drawn), CCCCCC[C@H]1COc2cc([C@H]3CC[C@](N)(COP(=O)(O)O)C3)ccc2C1, CCCC/C=C/[C@@H]1CCc2cc([C@H]3CC[C@](N)(COP(=O)(O)O)C3)ccc2C1
